In patent US7838556B2 (priority 2006, dated 2010):
pKd: −log10 of the molar value. Where a name gives a salt, the structure may show the parent alone. Read-outs that look alike come from different tables or passages of the source.

Key:
Melatonin, Non-selective = assay type: binding
GABAB receptors [1] = target: T1, GABAB receptors (Rattus norvegicus, UniProt Q9Z0U4); assay type: binding
GABA receptors [2] = assay type: binding, rat
GABAA receptors [3] = assay type: binding, rat
GABA receptors [4] = details: cited from earlier work
GABAB receptors [5] = target: T1, GABAB receptors; details: cited from earlier work
GABAA receptors [6] = details: cited from earlier work
[7] = tested on: Muscarinic, Non-selective, Central; assay type: binding
Dopamine, Non-selective = assay type: binding
Sigma, Non-selective = assay type: binding
[8] = tested on: Calcium Channel, Type L (Dihydropyridine Site); assay type: binding
Sodium, Site 2 = assay type: binding
[9] = tested on: Adrenergic, Alpha 1, Non-selective; assay type: binding
[10] = tested on: GABA, Chloride, TBOB Site; assay type: binding
[11] = tested on: Calcium Channel, Type L (Benzothiazepine Site); assay type: binding
GABA, Non-Selective = assay type: binding
Opiod, Non-selective = assay type: binding
Adenosine, Non-selective = assay type: binding
[12] = tested on: Muscarinic, Non-selective, Peripheral; assay type: binding
[13] = target: Potassium Channel, ATP-Sensitive (Rattus norvegicus, UniProt Q09429); assay type: binding
[14] = target: Potassium Channel, I[Kr] (hERG) (hr) (Homo sapiens, UniProt Q12809)
Calcium Channel, Type N = Calcium Channel, Type N (Homo sapiens, UniProt Q00975); assay type: binding
Chain of Calcium Channel, Type N (Q00975 whole entry, looked up): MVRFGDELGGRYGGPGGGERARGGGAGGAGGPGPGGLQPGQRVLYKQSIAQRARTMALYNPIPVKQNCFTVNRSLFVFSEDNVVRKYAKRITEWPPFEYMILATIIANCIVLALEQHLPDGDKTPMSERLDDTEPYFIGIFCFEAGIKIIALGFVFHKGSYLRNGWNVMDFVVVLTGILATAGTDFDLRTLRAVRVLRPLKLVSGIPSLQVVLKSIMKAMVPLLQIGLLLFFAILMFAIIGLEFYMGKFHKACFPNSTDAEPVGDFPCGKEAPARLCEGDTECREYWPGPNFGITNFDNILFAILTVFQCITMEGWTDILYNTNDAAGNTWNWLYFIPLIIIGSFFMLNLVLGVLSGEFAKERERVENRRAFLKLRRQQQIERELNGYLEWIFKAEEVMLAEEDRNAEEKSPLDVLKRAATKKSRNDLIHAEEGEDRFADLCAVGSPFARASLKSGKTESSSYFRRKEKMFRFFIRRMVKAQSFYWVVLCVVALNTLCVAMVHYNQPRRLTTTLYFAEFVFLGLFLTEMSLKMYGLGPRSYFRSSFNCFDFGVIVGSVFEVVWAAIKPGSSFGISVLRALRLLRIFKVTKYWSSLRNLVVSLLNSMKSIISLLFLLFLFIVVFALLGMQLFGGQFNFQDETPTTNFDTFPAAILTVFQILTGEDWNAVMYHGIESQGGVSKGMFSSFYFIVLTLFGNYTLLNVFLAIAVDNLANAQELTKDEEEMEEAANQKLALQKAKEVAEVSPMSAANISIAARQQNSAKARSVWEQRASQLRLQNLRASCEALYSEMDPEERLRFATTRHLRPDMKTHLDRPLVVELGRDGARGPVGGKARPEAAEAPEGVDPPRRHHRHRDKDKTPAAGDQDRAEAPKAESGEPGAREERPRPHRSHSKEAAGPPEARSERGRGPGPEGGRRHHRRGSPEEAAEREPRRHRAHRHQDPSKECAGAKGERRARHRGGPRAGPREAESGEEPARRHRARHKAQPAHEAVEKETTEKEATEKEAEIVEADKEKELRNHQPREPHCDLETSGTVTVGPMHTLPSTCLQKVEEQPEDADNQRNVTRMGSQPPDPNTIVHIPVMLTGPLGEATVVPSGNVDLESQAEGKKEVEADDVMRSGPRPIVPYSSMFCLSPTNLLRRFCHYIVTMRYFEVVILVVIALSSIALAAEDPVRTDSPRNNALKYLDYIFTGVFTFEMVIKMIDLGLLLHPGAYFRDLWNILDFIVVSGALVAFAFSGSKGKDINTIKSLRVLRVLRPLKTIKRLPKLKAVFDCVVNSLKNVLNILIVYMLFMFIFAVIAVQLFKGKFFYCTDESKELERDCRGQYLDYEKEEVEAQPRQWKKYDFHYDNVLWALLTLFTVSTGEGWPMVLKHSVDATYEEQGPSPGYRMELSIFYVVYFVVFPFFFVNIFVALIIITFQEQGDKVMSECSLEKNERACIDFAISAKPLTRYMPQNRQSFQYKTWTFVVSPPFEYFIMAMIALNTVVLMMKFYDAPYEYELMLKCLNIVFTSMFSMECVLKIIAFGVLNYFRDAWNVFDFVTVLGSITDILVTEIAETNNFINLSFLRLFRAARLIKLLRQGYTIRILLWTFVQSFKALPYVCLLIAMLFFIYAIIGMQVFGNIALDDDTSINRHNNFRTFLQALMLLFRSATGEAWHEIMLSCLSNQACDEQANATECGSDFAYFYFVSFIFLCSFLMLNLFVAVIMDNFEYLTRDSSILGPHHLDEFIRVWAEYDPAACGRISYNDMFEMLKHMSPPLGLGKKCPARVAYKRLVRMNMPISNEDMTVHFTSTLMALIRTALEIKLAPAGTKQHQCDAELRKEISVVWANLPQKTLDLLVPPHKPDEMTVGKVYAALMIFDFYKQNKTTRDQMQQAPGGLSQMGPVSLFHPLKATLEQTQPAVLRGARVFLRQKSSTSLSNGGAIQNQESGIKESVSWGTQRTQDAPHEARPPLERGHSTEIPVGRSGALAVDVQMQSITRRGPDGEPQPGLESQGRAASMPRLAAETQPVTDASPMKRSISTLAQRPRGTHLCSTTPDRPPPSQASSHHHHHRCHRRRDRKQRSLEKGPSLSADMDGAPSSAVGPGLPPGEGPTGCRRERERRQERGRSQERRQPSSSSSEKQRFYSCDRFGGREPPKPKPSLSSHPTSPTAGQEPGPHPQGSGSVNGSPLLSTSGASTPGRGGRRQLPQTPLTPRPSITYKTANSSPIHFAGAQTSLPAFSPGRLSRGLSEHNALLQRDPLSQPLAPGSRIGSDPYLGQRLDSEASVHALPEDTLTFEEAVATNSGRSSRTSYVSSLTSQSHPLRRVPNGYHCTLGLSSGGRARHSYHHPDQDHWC

[15] = tested on: Adrenergic, Beta, Non-selective; assay type: binding
[16] = tested on: Adrenergic, Alpha 2, Non-selective; assay type: binding
Serotonin, Non-selective = assay type: binding
[17] = target: T2, GHB receptors (GHB sites) (Rattus norvegicus, UniProt P11275); assay type: binding
T2 sequence (P11275 whole entry): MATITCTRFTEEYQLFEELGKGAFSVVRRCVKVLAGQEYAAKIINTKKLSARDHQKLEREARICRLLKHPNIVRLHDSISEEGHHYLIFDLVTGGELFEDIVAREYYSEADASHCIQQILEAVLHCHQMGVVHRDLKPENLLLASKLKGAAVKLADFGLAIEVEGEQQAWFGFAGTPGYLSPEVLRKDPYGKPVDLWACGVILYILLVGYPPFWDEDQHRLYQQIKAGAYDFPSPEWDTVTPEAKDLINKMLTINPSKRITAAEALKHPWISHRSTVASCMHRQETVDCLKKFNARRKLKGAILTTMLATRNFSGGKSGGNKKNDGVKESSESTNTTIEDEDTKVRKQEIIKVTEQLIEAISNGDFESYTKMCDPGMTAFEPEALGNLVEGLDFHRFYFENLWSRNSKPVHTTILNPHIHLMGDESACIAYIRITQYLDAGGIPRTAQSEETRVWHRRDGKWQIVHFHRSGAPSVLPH

[18] = target: T2, GHB receptors (GHB sites); details: cited from earlier work
[19] = target: Calcium Channel, Type L (Dihydropyridine Site); details: cited from earlier work

T1 sequence (O88871 41-940): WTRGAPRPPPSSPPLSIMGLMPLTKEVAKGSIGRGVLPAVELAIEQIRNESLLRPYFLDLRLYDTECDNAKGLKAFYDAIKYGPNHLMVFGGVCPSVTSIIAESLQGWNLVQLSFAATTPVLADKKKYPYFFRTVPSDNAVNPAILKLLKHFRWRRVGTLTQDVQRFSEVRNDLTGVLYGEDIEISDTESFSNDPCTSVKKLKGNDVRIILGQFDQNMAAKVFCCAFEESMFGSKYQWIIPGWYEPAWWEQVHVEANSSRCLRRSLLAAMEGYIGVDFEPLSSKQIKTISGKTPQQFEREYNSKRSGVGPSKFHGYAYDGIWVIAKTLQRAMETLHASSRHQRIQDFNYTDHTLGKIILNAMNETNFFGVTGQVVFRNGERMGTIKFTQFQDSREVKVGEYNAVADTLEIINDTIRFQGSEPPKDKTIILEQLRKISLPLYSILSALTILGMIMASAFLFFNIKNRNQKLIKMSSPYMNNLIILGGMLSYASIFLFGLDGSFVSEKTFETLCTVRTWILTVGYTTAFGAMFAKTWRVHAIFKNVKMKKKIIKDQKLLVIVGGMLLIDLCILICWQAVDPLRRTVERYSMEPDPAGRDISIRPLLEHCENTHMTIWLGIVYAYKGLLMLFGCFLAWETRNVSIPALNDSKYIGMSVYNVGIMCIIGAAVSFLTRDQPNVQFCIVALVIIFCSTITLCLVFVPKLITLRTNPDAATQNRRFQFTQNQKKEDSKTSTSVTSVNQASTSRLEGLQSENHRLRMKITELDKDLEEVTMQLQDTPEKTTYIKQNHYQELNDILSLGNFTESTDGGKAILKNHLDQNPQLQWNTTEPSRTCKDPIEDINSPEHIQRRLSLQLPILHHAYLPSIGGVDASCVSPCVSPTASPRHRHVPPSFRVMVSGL
T1 sequence (Q9Z0U4 17-960): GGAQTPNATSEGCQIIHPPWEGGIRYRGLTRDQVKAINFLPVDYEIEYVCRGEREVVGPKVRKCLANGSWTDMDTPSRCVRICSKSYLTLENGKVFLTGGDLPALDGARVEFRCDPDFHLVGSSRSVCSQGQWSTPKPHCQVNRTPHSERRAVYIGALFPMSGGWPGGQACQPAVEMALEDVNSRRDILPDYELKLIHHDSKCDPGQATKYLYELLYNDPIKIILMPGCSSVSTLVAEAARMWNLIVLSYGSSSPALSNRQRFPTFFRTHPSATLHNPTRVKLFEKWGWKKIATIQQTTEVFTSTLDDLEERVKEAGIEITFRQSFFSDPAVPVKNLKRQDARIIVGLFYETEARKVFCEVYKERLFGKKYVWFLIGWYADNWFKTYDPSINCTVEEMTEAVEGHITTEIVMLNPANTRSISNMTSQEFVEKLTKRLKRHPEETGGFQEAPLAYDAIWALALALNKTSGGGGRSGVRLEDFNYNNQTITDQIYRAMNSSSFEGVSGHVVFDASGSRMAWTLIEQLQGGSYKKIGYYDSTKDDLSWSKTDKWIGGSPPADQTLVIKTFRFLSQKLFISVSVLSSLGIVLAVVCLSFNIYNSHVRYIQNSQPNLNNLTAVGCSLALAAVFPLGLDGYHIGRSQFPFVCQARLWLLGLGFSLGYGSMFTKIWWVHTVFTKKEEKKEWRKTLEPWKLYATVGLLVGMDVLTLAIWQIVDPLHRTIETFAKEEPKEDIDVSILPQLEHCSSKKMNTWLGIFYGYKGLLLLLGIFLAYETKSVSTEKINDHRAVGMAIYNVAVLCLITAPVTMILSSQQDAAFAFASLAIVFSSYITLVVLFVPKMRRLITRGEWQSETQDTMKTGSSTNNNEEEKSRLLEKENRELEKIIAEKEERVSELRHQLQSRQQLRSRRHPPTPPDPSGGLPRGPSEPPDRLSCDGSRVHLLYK

What does the source list for `O=C(O)Cc1cccc(Oc2ccccc2)c1` [Compound 12, phenyl ether of 3-hydroxyphenylacetic acid]?
Percent displacement of [3H]GABA at 1 Mm, GABAB (GABAB receptors [1]): −5.5 ± 1.2%; affinity at GABA receptors / displacement of [3H]GABA compared with 3-hydroxyphenylacetic acid (GABA receptors [2]): decreased affinity; Percent displacement of [3H]GABA at 1 Mm, GABAA (GABAA receptors [3]): 2.7 ± 0.5%

Which results are given for `O=C(O)Cc1cccc(O)c1` [Compound 7, 3-hydroxyphenylacetic acid]?
affinity for GABA receptors (GABA receptors [4]): weak affinity; Percent displacement of [3H]GABA at 1 Mm, GABAB (GABAB receptors [5]): 14.0 ± 4.0%; Percent displacement of [3H]GABA at 1 Mm, GABAA (GABAA receptors [6]): 44.2 ± 2.0%

For `O=C(O)Cc1cccc(OCCc2ccccc2)c1` [Compound 10, phenethyl ether of 3-hydroxyphenylacetic acid], which Activity [7] is on record?
Its Activity is “No (key: No: Activity = greater than or equal to 50% Inhibition of binding)”.

And the “Percent Inhibition (Average; N = 2)” value [7]?
Its value is 6.98%.

What about the “Percent displacement of [3H]GABA at 1 Mm, GABAB” value (“Percent displacement … GABAB” below) (GABAB receptors [1]) of the same molecule?
The value was −1.2 ± 7.3%.

And the Activity (Dopamine, Non-selective)?
The Activity was “No (key: No: Activity = greater than or equal to 50% Inhibition of binding)”.

And the “Percent Inhibition (Average; N = 2)” value (Dopamine, Non-selective)?
The value was 14.51%.

And the Activity (Sigma, Non-selective)?
The Activity was “No (key: No: Activity = greater than or equal to 50% Inhibition of binding)”.

And the “Percent Inhibition (Average; N = 2)” value (Sigma, Non-selective)?
Its value is 4.30%.

And the Activity [8]?
The Activity was “No (key: No: Activity = greater than or equal to 50% Inhibition of binding)”.

What about the “Percent Inhibition (Average; N = 2)” value [8] of the same molecule?
The value was 14.52%.

What about the Activity (Sodium, Site 2) of the same molecule?
The Activity was “No (key: No: Activity = greater than or equal to 50% Inhibition of binding)”.

What about the “Percent Inhibition (Average; N = 2)” value (Sodium, Site 2) of the same molecule?
Its value is 10.18%.

And the Activity [9]?
The Activity was “No (key: No: Activity = greater than or equal to 50% Inhibition of binding)”.

What about the “Percent Inhibition (Average; N = 2)” value [9] of the same molecule?
The value was −10.77%.

And the Activity [10]?
The Activity was “No (key: No: Activity = greater than or equal to 50% Inhibition of binding)”.

And the “Percent Inhibition (Average; N = 2)” value [10]?
Its value is −15.01%.

And the Activity [11]?
The Activity was “No (key: No: Activity = greater than or equal to 50% Inhibition of binding)”.

And the “Percent Inhibition (Average; N = 2)” value [11]?
Its value is 9.41%.

What about the Activity (GABA, Non-Selective) of the same molecule?
Its Activity is “No (key: No: Activity = greater than or equal to 50% Inhibition of binding)”.

And the “Percent Inhibition (Average; N = 2)” value (GABA, Non-Selective)?
The value was 10.28%.

What about the Activity (Opiod, Non-selective) of the same molecule?
Its Activity is “No (key: No: Activity = greater than or equal to 50% Inhibition of binding)”.

And the “Percent Inhibition (Average; N = 2)” value (Opiod, Non-selective)?
The value was 0.09%.

And the Activity (Adenosine, Non-selective)?
Its Activity is “No (key: No: Activity = greater than or equal to 50% Inhibition of binding)”.

And the “Percent Inhibition (Average; N = 2)” value (Adenosine, Non-selective)?
The value was −3.45%.

What about the Activity [12] of the same molecule?
Its Activity is “No (key: No: Activity = greater than or equal to 50% Inhibition of binding)”.

And the “Percent Inhibition (Average; N = 2)” value [12]?
Its value is −0.77%.

What about the Activity [13] of the same molecule?
The Activity was “No (key: No: Activity = greater than or equal to 50% Inhibition of binding)”.

What about the Activity [14] of the same molecule?
The Activity was “No (key: No: Activity = greater than or equal to 50% Inhibition of binding)”.

What about the “Percent Inhibition (Average; N = 2)” value ([14]; human) of the same molecule?
The value was −11.94%.

What about the Activity (Melatonin, Non-selective) of the same molecule?
The Activity was “No (key: No: Activity = greater than or equal to 50% Inhibition of binding)”.

And the “Percent Inhibition (Average; N = 2)” value (Melatonin, Non-selective)?
Its value is 12.69%.

What about the Activity (Calcium Channel, Type N) of the same molecule?
The Activity was “No (key: No: Activity = greater than or equal to 50% Inhibition of binding)”.

And the “Percent Inhibition (Average; N = 2)” value (Calcium Channel, Type N)?
The value was −2.31%.

And the Activity [15]?
The Activity was “No (key: No: Activity = greater than or equal to 50% Inhibition of binding)”.

What about the “Percent Inhibition (Average; N = 2)” value [15] of the same molecule?
The value was 43.67%.

What about the “affinity at GABA receptors / displacement of [3H]GABA compared with 3-hydroxyphenylacetic acid” value (GABA receptors [2]) of the same molecule?
The value was “decreased affinity”.

What about the “Percent displacement of [3H]GABA at 1 Mm, GABAA” value (from here on “Percent displacement … GABAA”) (GABAA receptors [3]) of the same molecule?
The value was 15.1 ± 7.5%.

And the Activity [16]?
The Activity was “No (key: No: Activity = greater than or equal to 50% Inhibition of binding)”.

What about the “Percent Inhibition (Average; N = 2)” value [16] of the same molecule?
The value was 0.21%.

And the Activity (Serotonin, Non-selective)?
Its Activity is “No (key: No: Activity = greater than or equal to 50% Inhibition of binding)”.

What about the “Percent Inhibition (Average; N = 2)” value (Serotonin, Non-selective) of the same molecule?
The value was −1.83%.

For `O=C(O)CCCO` [Compound 1, Gamma-hydroxybutyric acid], which “affinity for GABA receptors” value (GABA receptors [4]) is on record?
The value was “weak affinity”.

And the “Percent displacement … GABAB” value (GABAB receptors [5])?
Its value is 41.1 ± 3.1%.

What about the “Percent displacement … GABAA” value (GABAA receptors [6]) of the same molecule?
Its value is 35.5 ± 3.7%.

What does the source list for `O=C(O)CCCOc1ccccc1` [Compound 8, reference compound]?
Percent displacement of [3H]GABA at 1 Mm, GABAB (GABAB receptors [1]): 6.5 ± 1.0%; Percent displacement of [3H]GABA at 1 Mm, GABAA (GABAA receptors [3]): 6.3 ± 1.7%

Which Ki (Sodium, Site 2; read-out: Ki (M) Ref. Cpd.) does the source give for `CCN1C[C@]2(COC)[C@H](O)C[C@H](OC)[C@@]34[C@@H]5C[C@@]6(O)[C@H](OC(=O)c7ccccc7)[C@@H]5[C@@](OC(C)=O)([C@@H]([C@H](OC)[C@H]23)[C@@H]14)[C@@H](O)[C@@H]6OC` [Aconitine, reference compound] here?
Its Ki is 6.67e-07 M.

With `C=CCc1ccccc1OCC(O)CNC(C)C` (stereo not drawn) [Alprenolol HCl, reference compound] as the molecule, how does the Ki ([15]; read-out: Ki (M) Ref. Cpd.) read?
Its Ki is 3.33e-09 M.

For `O=C(O)Cc1cccc(OCc2ccccc2)c1` [Compound 11, benzyl ether of 3-hydroxyphenylacetic acid], which “fold lower affinity for GHB receptors than 3-hydroxyphenylacetic acid” value [17] is on record?
The value was 4 fold.

What about the “Percent displacement … GABAB” value (GABAB receptors [1]) of the same molecule?
Its value is −4.7 ± 4.7%.

And the “affinity at GABA receptors / displacement of [3H]GABA compared with 3-hydroxyphenylacetic acid” value (GABA receptors [2])?
The value was “lower extent”.

What about the “Percent displacement … GABAA” value (GABAA receptors [3]) of the same molecule?
The value was 11.0 ± 6.2%.

With `O=C(O)Cc1cccc(O)c1` [3-hydroxyphenylacetic acid] as the molecule, how does the “affinity at GHB receptors compared with GHB” value [18] read?
Its value is “greater affinity than GHB”.

And the “Percent displacement … GABAA” value (GABAA receptors [6])?
Its value is 44%.

With `CCOC(=O)C1=C(C)NC(C)=C(C(=O)OC)C1c1cccc([N+](=O)[O-])c1` (stereo not drawn) [[3H]Nitrendipine] as the molecule, how does the pKd [19] read?
The pKd was 9.70.

Which Ki ([7]; read-out: Ki (M) Ref. Cpd.) does the source give for `CN1[C@@H]2CC[C@H]1C[C@@H](OC(=O)C(CO)c1ccccc1)C2` (stereo partly drawn) [Atropine sulfate, reference compound] here?
The Ki was 1.26e-10 M.

What about the Ki ([12]; read-out: Ki (M) Ref. Cpd.) of the same molecule?
The Ki was 5.8e-10 M.
